Entries after “also recorded” stand apart in the source; their conditions may differ. Where two headings read alike, the source gives them in different places. Residues, ends and D or L forms follow the SMILES beside them. *: point of attachment. Cbz = O=C(OCc1ccccc1)*; CH2F = FC*
Experiments:
calpain-1 [1] = target: T1, calpain-1 (Homo sapiens, UniProt P07384); assay: in vitro calpain-1 inhibition, succinic-Leu-Tyr-AMC substrate; assay type: biochemical; details: n = 3-5; for Ki: Example 13, read-out: Ki Calpain-1
T1 sequence (P07384 1-714): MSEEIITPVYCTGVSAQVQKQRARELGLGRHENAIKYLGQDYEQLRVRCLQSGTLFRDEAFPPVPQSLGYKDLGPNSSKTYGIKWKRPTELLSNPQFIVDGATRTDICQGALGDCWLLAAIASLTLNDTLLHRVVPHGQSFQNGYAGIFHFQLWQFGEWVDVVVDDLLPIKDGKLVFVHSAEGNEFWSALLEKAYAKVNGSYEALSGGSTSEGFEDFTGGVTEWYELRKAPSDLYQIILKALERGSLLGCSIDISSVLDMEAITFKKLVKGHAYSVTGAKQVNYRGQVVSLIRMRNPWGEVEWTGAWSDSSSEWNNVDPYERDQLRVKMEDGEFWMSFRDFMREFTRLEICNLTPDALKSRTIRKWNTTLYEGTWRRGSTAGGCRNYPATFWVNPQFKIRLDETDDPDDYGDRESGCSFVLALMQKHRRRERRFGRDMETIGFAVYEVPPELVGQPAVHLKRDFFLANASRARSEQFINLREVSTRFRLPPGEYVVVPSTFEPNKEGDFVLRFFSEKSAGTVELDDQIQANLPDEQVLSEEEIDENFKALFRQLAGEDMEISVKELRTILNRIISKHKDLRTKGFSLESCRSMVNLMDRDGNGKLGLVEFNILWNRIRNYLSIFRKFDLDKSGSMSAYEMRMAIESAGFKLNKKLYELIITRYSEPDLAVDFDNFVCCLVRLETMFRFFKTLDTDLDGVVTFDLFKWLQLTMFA
T1 sequence (P04632 1-268 partner): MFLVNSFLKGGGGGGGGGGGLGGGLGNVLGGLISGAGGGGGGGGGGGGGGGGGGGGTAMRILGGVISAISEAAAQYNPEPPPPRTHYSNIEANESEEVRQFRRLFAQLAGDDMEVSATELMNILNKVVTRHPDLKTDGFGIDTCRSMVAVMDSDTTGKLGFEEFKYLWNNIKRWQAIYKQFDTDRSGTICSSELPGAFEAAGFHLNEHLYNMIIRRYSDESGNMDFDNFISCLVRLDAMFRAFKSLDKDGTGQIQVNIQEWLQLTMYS
Method: (§1) Formula 1, where chiral center 1 is the L-form and chiral center 2 is a racemic mixture of D- and L- in this example was introduced at various concentrations (from 1 nM to 10 μM) into an in vitro mix comprising succinic-Leu-Tyr-AMC and calpain-1 or calpain-2 (Sasaki et al, 1984), and the kinetics of the loss of fluorescence were determined for each of the calpains (Powers et al, 2000). […] Therefore, the assessment of selectivity described herein was different than the prior teaching.
(§2) Formula 1A, where chiral center 1 is the S-form and chiral center 2 is the S-form was separated from the S-R-form (Formula 1B) using methods that are well-known methods for separating diastereoisomers. Formula 1A, which is also referred to herein as compound 18A, in this example was introduced at various concentrations into an in vitro mix comprising succinic-Leu-Tyr-AMC and μ-calpain or m-calpain (Sasaki et al, 1984), and the kinetics of the loss of fluorescence were determined for each of the calpains.

calpain-2 [2] = target: T2, calpain-2 (Homo sapiens, UniProt P17655); assay: in vitro calpain-2 inhibition, succinic-Leu-Tyr-AMC substrate; assay type: biochemical; details: for Ki: Example 13, read-out: Ki Calpain-2; for Ki / IC50: n = 3-4
T2 sequence (P17655 1-700): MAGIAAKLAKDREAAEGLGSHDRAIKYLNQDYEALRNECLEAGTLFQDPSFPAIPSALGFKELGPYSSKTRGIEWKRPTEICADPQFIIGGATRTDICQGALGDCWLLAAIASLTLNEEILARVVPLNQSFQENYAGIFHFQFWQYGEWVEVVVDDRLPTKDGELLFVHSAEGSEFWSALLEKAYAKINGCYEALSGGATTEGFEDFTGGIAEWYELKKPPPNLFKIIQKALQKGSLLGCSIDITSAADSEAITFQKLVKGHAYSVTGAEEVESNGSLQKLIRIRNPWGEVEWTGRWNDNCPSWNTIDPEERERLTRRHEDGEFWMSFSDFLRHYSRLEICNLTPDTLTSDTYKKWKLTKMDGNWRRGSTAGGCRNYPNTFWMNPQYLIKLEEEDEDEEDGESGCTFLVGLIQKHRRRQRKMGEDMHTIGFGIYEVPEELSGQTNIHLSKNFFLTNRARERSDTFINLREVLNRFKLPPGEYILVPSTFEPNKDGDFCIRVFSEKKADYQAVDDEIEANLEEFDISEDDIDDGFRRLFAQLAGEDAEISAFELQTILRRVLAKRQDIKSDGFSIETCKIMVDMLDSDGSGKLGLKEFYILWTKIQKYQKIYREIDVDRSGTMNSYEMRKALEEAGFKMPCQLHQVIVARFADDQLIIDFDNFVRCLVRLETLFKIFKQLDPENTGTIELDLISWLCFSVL
T2 sequence (P04632 1-268 partner): T1 sequence (P04632 1-268 partner)
Method: as §1, §2

[3] = test system: stratum radiatum of field CA1 in acute rat hippocampal slices; assay: field EPSP recording, TBS-induced LTP in acute rat hippocampal slices; assay type: cell-based
Method: Results are expressed as percent of the average values over a 10 min baseline period and are means±S.E.M. of the indicated number of experiments.
FIG. 3A: Field recording of excitatory postsynaptic potentials (EPSPs) performed in stratum radiatum of field CA1 in acute rat hippocampal slices in the presence or absence of 200 nM of the calpain-2 selective inhibitor, Formula I, (mCalp-I in the drawing). Preincubation with mCalp-I enhances LTP. Results are expressed as percent of the average values over a 10 min baseline period and are means±S.E.M. of the indicated number of experiments.
Results are expressed as percent of the average values over the 10 min baseline period and are means±S.E.M. of the indicated number of experiments.
Generic calpain inhibitors block LTP when administered before LTP induction. Field recording of excitatory postsynaptic potentials (EPSPs; FIG. 2) was performed in stratum radiatum of field CA1 in acute rat hippocampal slices.
A calpain 2-selective inhibitor enhances LTP. […]

Akt and ERK = Akt and ERK phosphorylation in cultured cortical neurons, immunoblot; assay type: cell-based; details: for Akt and ERK phosphorylation (pAkt/Akt, pERK/ERK): peptide 1.5 μM, 30 min
Source text: Pre-treatment with Calpain-2 C-terminal peptide had no effect on Akt and ERK levels. Columns represent means±S.E.M. n=3-6. *p<0.05. One-way ANOVA followed by Bonferroni test.

[4] = test system: cultured cortical neurons; assay: neuroprotection against starvation and oxidative stress (H2O2); assay type: cell-based; details: 1.5 μM
Source text: Columns represent means±S.E.M. n=4. *p<0.05; **p<0.01; ***p<0.001. One-way ANOVA followed by Bonferroni test.

calpain-1 [5] = target: T1, calpain-1; details: cited from earlier work
calpain-2 [6] = target: T2, calpain-2; details: cited from earlier work
[7] = test system: cultured cortical neurons; assay: Bic- and 4-AP-induced neuroprotection against starvation, Hoechst staining; assay type: cell-based; details: mCalp-I 200 nM
Source text: Neuronal death was observed and quantified by Hoechst staining. 300-500 neurons were counted for each group in three to 6 independent experiments. *p<0.05; ns, no significant difference; one-way ANOVA followed by Bonferroni test. n=3-6. Error Bar indicates SEM
Neuronal death was observed and quantified by Hoechst staining. 300-500 neurons were counted for each group in three to 6 independent experiments. *p<0.05; ns, no significant difference; one-way ANOVA followed by Bonferroni test. n=3-6. Error Bar indicates SEM (FIG. 6).

CC[C@@H](NC(=O)[C@H](CC(C)C)NC(=O)OCc1ccccc1)C(=O)C(=O)NCc1cc(OC)cc(OC)c1 [Formula 1B]
Ki (calpain-1 [1]): 514000 ± 151000 nM
IC50 (calpain-1 [1]): 569000 nM
Ratio KiCalpain-1/KiCalpain-2 (calpain-2 [2]): 34
Ki (calpain-2 [2]): 15600 ± 9200 nM
IC50 (calpain-2 [2]): 19400 nM

Calpain-1 C-terminal peptide: calpain-1 PDZ-binding domain specific peptide: VTFDLFKWLQLTMFA, or fragment or modification thereof
LTP in rat hippocampal slices on un-scaffolding calpain-1 ([3]; calpain-1 PDZ-peptide): greater LTP
Akt and ERK phosphorylation (pAkt/Akt, pERK/ERK) (Akt and ERK): increased Akt and ERK phosphorylation
neuroprotection against H2O2 insult [4]: neuroprotection against H2O2 insult
neuroprotection against starvation [4]: neuroprotection against starvation

CCCNC(=O)C(=O)C(Cc1ccccc1)NC(=O)C(CC(C)C)NC(=O)OCc1ccccc1 (stereo not drawn) [Formula XII, z-Leu-Phe-CONH-nPr]
Ki (calpain-1 [5]; Li et al, 1996, read-out: Ki for calpain-1 (μ-calpain), literature): 50 nM
Ki (calpain-1 [5]; U.S. Pat. No. 6,235,929, column 14, Table I, read-out: Ki for calpain-1): 15000 nM
Ki (calpain-2 [6]; Li et al, 1996, read-out: Ki for calpain-2 (m-calpain), literature): 350 nM

CC(C)C(NC(=O)OCc1ccccc1)C(=O)NC(C=O)Cc1ccccc1 (stereo not drawn) [Calpain inhibitor III, Z-Val-Phe-CHO, reference compound] (Cbz-Val-Phe-aldehyde; configuration not given here)
LTP after theta-burst stimulation ([3]; 10 μM added prior to TBS): blocks LTP; also recorded: prevented the formation of LTP
short-term potentiation (increase in fEPSPs that follows TBS) ([3]; 10 μM added prior to TBS): did not block short-term potentiation
blocked Bic- and 4-AP-induced neuroprotection against starvation [7]: blocked
effect of calpain-1 peptide on Akt and ERK (Akt and ERK; pre-treatment 10 μM): blocks the effect of calpain-1 peptide on Akt and ERK
Ki (calpain-2 [6]; stated for generic inhibitor, source not given, read-out: Ki for calpain-2): ~8 nM

CC(C)C[C@H](NC(=O)OCc1ccccc1)C(=O)N[C@@H](CC(C)C)C(=O)N[C@@H](Cc1ccc(O)cc1)C(=O)CF [Calpain inhibitor IV, carboxybenzyl-Leu-Leu-Tyr-CH2-F] (Cbz-Leu-Leu-Tyr-CH2F)
selectivity among calpains (calpain-1 [5]; Powers et al, 2002, effect appears to vary with cell-type): some selectivity for calpain-1

CC[C@H](NC(=O)[C@H](CC(C)C)NC(=O)OCc1ccccc1)C(=O)C(=O)NCc1cc(OC)cc(OC)c1 [Formula 1A]
Ki (calpain-1 [1]): 181 ± 73 nM
IC50 (calpain-1 [1]): 379 nM
Ratio KiCalpain-1/KiCalpain-2 (calpain-2 [2]): 23.2
Ki (calpain-2 [2]): 7.8 ± 2.5 nM
difference in activity between the two diasteriomers, inhibition of calpain-2 (calpain-2 [2]; Formula 1A versus S-R-form): 2000 fold
IC50 (calpain-2 [2]): 193 nM

Calpain-2 C-terminal peptide: calpain-2 PDZ-binding domain specific peptide: TIQLDLISWLSFSVL, or fragment or modification thereof
Akt and ERK phosphorylation (pAkt/Akt, pERK/ERK) (Akt and ERK): no effect
